We go through two compounds from article PMC11468294, “Peptide Amphiphiles as Biodegradable Adjuvants for Efficient Retroviral Gene Delivery” (Advanced Healthcare Materials, 2023).

Where a SMILES comes first, the peptide text is derived from it. The star is where a group is joined. Palmitoyl = CCCCCCCCCCCCCCCC(=O)* Bounds are passed on as bounds.

Series [1] is described as follows: ATR-FT-IR β-sheet content. The settings on record: ATR-IR of lyophilized fibril solutions (1 mg mL-1, PBS); peak integration at 1630 cm-1 in 2nd derivative of amide I region. It is filed as physicochemical. On the procedure:
ATR‐FT‐IR: ATR‐IR spectra acquisition and the calculation of β−sheet content were conducted according to a previous report.^[ [20] ^] Briefly, FT‐IR spectra of solid samples were recorded after lyophilization of fibril solutions using a Bruker Tensor II spectrometer equipped with a diamond crystal as ATR element with a spectral resolution of 2 cm–1, each spectrum was an average of 64 scans. The data was processed with Origin software. β−sheet amount was determined by calculating the integral of the peak at 1630 cm^−1 (β‐sheet) relative to the integral between 1650–1700 cm^−1 (native structure) from the 2nd derivative of the FT‐IR spectra.

Series [2] can be described thus: ThT fluorescence. It is filed as physicochemical. Further details: key: + = ThT active; − = no ThT fluorescence observed. The settings on record: 1 mg mL-1 in PBS; ThT-active if fluorescence at least twice the control (PBS with 10% DMSO). On the procedure: ThT‐fluorescence: 20 µL 50 µM of ThT solution in PBS was pipetted in a black 384 well‐plate and 4 µL of the nanofibril solution 1 mg mL^−1 were added. For reference PBS with 10% DMSO (4 µL) instead of fibril solution was added. Subsequently, fluorescence emission was recorded λem = 488 nm upon excitation at λex = 440 nm with 10 nm bandwidth and multiple reads per well (3 × 3) using a Spark 20 M microplate reader (Tecan Group, Ltd). Data processing was performed with Origin software. A peptide fibril was considered as ThT‐active if the fluorescence intensity was at least twice as strong compared to the control (PBS containing 10% DMSO).

The subject of series [3] is CD4+ T cells. The series can be described thus: Confocal microscopy degradation study with CD4+ T cells. In kind it is in vitro ADME, Human. The note with it: 1 µg peptide (5 µg mL-1) added to 250,000 cells, 37°C, 30 min vs 3 d; Proteostat stain. The method, then:
Confocal laser scanning microscopy and degradation study with PA1‐3 and CD4+ T cells: The degradation of the peptide assemblies on CD4+ T cells was determined by analyzing fluorescence microscopy images. To this end, 4 µL of the preassembled peptide fibrils EF‐C, PA1 and PA2 (1 mg mL^−1, 1 d in PBS) were mixed with 4 µL of Proteostat (Enzo Life Science, 1 µL stock in 99 µL PBS) and incubated for 15 min. 2 µL of the stained fibrils were added to 198 µL preactivated and nucleus stained (Hoechst 33 342) CD4+ T cells (200 µL, 0.25 × 10^6) resulting in a final 5 µg mL^−1concentration of the peptide. After incubation for 30 min at 37°C the cells were washed with 3x with PBS and incubated in medium (supplemented RPMI containing IL‐15 and 7). Microscopy was conducted on a Zeiss LSM 710 confocal microscope with 20x and 63x objective and laser excitation wavelengths of 405 nm (Hoechst) and 561 nm (Proteostat). The measurements were performed after 30 min and 3 d of incubation at 37°C without any washing step in between. Control experiments to analyze changes of fibril aggregation were conducted analogously without the presence of cells. The evaluation of aggregate size and number was conducted by analyzing Proteostat stained aggregates via the 3D objects counter function of ImageJ 1.53f51 for 5 individual measurements (area 708.5 µm × 708.5 µm) of three individually repeated experiments.

In series [4] the test system is HeLa cells. The series can be described thus: Confocal microscopy degradation study with PA1-3 and HeLa cells. In kind it is in vitro ADME. The note with it: for degradation of aggregates > 10 µm^2 over 3 days: HeLa cells, 4 µg peptide (20 µg mL-1) added to 40,000 cells, 37°C, 30 min vs 3 d, Proteostat stain, confocal microscopy. On the procedure:
Confocal laser scanning microscopy and degradation study with PA1‐3 and HeLa cells: HeLa cells were seeded one day prior to conducting the assay (40000/well) in an 8‐well IBIDI slide. 4 µL of the preformed peptide fibrils (1 mg mL^−1) were diluted with 4 µL Proteostat (Enzo Life Science, 1 µL stock in 999 µL PBS) and incubated for 10 min and further diluted with medium to receive a final peptide concentration of 20 µg mL^−1. The nucleus of the HeLa cells was stained with Hoechst 33 342 (NucBlue, Thermo Fisher Scientific). The peptide solution was transferred to the HeLa cells and incubated for 30 min at 37°C before washing three times with PBS. The interaction of fibril clusters with cells was monitored after 30 min incubation time on a Stellaris 8 confocal laser scanning microscope (Leica) equipped with a 20x air objective and laser excitation wavelengths of 405 nm (Hoechst) and 561 nm (Proteostat). For the evaluation of aggregate degradation, the samples were further incubated at 37°C for 3 d and analyzed without any additional washing step. The evaluation of aggregate size and number was conducted by analyzing Proteostat stained aggregates via the 3D objects counter function of ImageJ 1.53f51 for 3 individual measurements (area 581.25 µm × 581.25 µm). […] The number of aggregates larger than 10 µm^2 were counted via the 3D objects counter function of ImageJ 1.53f51. The mean number and standard deviations were determined by averaging at least three technical triplicates.

For series [5], the system named is Jurkat cells. The series can be described thus: CellTiter-Glo cell viability, Jurkat cells. In kind it is cell-based. The settings on record: increasing peptide concentrations, 3 days, biological triplicate. The method, then: Cell Viability with TZM‐bl and Jurkat cells: The cell viability after addition of peptides to TZM‐bl cells and Jurkat was studied via the CellTiter‐Glo assay. To this end, 20000 cells TZM‐bl or 50000 Jurkat cells were incubated with serial diluted peptides. After 3 days the supernatant was removed and 100 µL CellTiter‐Glo Reagent 1:1 diluted in PBS was added. After 10 min 50 µL was transferred to white microplate and luminescence was recorded by Orion microplate luminometer.
(In general: In ATP-based viability assays light output follows the ATP content of the culture.)

The nature of series [6]: Zeta-potential measurement. The note with it: fibrils 1 mg mL-1 in PBS, 60 µL diluted in 600 µL 1 mM KCl; triplicates. It is filed as physicochemical. On the procedure:
Zeta‐potential: 60 µL of the peptides (1 mg mL^−1) were diluted in 600 µL, 1 mM KCl solution and placed in a disposable folded capillary cuvette. All zeta‐potential measurements (Zetasizer, Malvern Instruments) were conducted in triplicates for each sample.

Series [7] concerns GALV-RV transduction of Jurkat cells. The series can be described thus: γ-Retroviral infection assay of Jurkat cells (GFP+ cells by flow cytometry). In kind it is cell-based. The settings on record: three days after transduction, increasing peptide concentration, performed once. The method, then:
γ‐Retroviral Infection Assay of Jurkat cells: 50000 Jurkat cells were seeded in 180 µl supplemented RPMI. The cells were inoculated with 20 µl PNF solution 1:1 (v/v) mixed with virus (1:3.2 dilution) after an incubation time of 10 min. The effect of peptide fibrils on retroviral transduction of Jurkat cells was analyzed 3 days post infection by determining the percentage of GFP + cells by flow cytometry. All assays were conducted as described before.^[ [20] ^]
For orientation: Flow cytometry measures light scatter and fluorescence of single cells or particles in a stream.

In series [1], `CCCCCCCCCCCCCCCC(=O)N[C@@H](Cc1ccccc1)C(=O)N[C@@H](CCC(N)=O)C(=O)N[C@@H](Cc1ccccc1)C(=O)N[C@@H](CCCCN)C(=O)N[C@@H](Cc1ccccc1)C(=O)N[C@@H](CCCCN)C(=O)N[C@@H](CS)C(N)=O` [PA2] (Palmitoyl-FQFKFKC-NH2) showed a β-sheet content of 59%. Further, the ThT fluorescence entry in series [2] is on record as “+”. Moreover, in series [3], the “degradation of aggregates by CD4+ T cells (in words)” value is “not degraded as efficiently”. Also, the “degradation of aggregates > 10 µm^2 over 3 days” value in series [4] is 52%. For the same compound, the “aggregate size (large aggregates)” value in series [4] (confocal aggregate size analysis with HeLa cells) was more than 50 µm^2. In addition, in series [5], the “viability of Jurkat cells” value is on record as “did not reduce the viability”. Moreover, in series [6], the Zeta-Potential result is listed as “+19.2 ± 3.4 mV”. In series [7], the “transduction enhancement of Jurkat cells (GFP+ cells, in words)” value is “strong transduction enhancement similar to EF‐C”.
In series [1], C16-VVVAAAKKK-NH2 [PA1] had a β-sheet content of 57%. Also, in series [2], the ThT fluorescence result is “+”. The “degradation of aggregates by CD4+ T cells (in words)” value in series [3] is recorded as “almost all small aggregates of PA1 are degraded by CD4+ T cells”. Further, the “degradation of aggregates > 10 µm^2 over 3 days” value in series [4] was found to be 94%. The “viability of Jurkat cells” value in series [5] is reported as “did not reduce the viability”. For the same compound, the Zeta-Potential entry in series [6] is reported as “+22.2 ± 0.7 mV”. For the same compound, the “transduction enhancement of Jurkat cells (GFP+ cells, in words)” value in series [7] was “strong transduction enhancement similar to EF‐C”.
